Here are results for two molecules from patent US9604931B2, “Nuclear receptor binding agents” (GTx, Inc., priority 2007, dated 2017).

“Also recorded” adds a separate entry of the source.

For assay [1], the system named is Ang II induced left ventricular hypertrophy. The assay can be described thus: Angiotensin II model, cardiac hypertrophy. Conditions: 21 days. It is filed as in vivo, ovariectomized C57/BJ6 and ERβKO mice. How it is done:
(§1) Thirty, ten week old female ovariectomized C57/BJ6 mice, were obtained from Harlan/Sprague Dawley and were housed in 12 hour on/off lighting and fed rodent chow devoid of soy or most plant products. Ovariectomized ERβKO mice were obtained from Ken Korach, NIEHS. The ERβ mice were originally created by Drs. Smithies, Gustafsson, and colleagues. All mice were identically housed and fed the same chow.
(§2) This pellet is well documented to produce physiological levels of E2 in the serum of mice.
At inception and after 21 days, the mice were weighed. Blood pressure was measured 4 times during the 21-day period, using the CODA non-invasive blood pressure measuring system. At 21 days the hearts were stopped in diastole by CdCl2 administration. The hearts were removed and weighed and the ratio of heart per total body weight was determined. Next, the hearts were dissected and the left ventricles were weighed and the ratio of left ventricle per total body weight was determined. […] For comparison ERβ gene-deleted mice were subjected to the same conditions of Ang II±E2 or the 12u compound. For histology, the hearts were and sectioned, and stained with hematoxylin and eosin, or Masson stain (for collagen)

Assay [2] has as its system LNCaP prostate cancer cells. The assay can be described thus: 3H thymidine incorporation, LNCaP cells. Conditions: 6 days treatment. Format: cell-based. How it is done: (§3) The effects of treatment of an ER-β selective NRBA of this invention on cancer cell proliferation was examined using LNCaP prostate cancer cells and C-26 colon cancer cells. LNCaP or C-26 cells were plated in growth medium in 24 well and 6 well plates, respectively. LNCaP cells were treated for 6 days and C-26 cells were treated for 3 days at the indicated concentration. ^3H thymidine incorporation was measured at the end of treatment as an indicator of cell proliferation.
(In general: Incorporation of labelled thymidine or its analogues reports DNA synthesis.)

Assay [3] has as its system Ang II induced cardiac fibrosis. The assay can be described thus: Angiotensin II model, cardiac fibrosis. Format: in vivo, ovariectomized C57/BJ6 and ERβKO mice. How it is done:
as §1, §2
Left ventricular tissues were fixed in 4% paraformaldehyde solution. Paraffin-embedded tissue sections (5 um) were stained with Masson's trichrome for the presence of interstitial collagen fiber accumulation indicative of cardiac fibrosis. The ratio of interstitial fibrosis to the total left ventricular area was calculated from 10 randomly selected microscopic fields from each of five sections per heart using NIH imageJ analysis software (n=5 mice per condition). Further quantification of collagen deposition was made by ventricular content of hydroxyproline, a breakdown product of collagen, determined by a modified method of Bergman and Loxley (19). The ventricular tissues were homogenized and hydrolyzed in 6 N HCl at 110° C. for 24 h in a sealed reaction vial. The sample was dried and the residue re-suspended in sterile water. 0.5 ml of chloramine T was added for 5 min, then Ehrlich's reagent (3 ml) was added and the mixture left for 18 h at room temperature. The intensity of the red coloration that developed was measured by a spectrophotometer at 558 nm.

The test system of assay [4] is LPS induced THP-1 macrophage cell adhesion to bEND-3 endothelial cells. The assay can be described thus: Macrophage adhesion assay. Format: cell-based. How it is done:
To determine the anti-inflammatory effects of ER-β NRBAs in vitro, a macrophage adhesion assay was performed. Macrophages adhere to endothelial cells due to elevated levels of pro-inflammatory cytokines. This principle was used in this assay to determine the effect of one of the ER-NRBAs on bacterial lipopolysaccharide (LPS) induced THP-1 macrophage cell adhesion to bEND-3 endothelial cells.

Assay [5] concerns MHC, phospho-ERK, MCIP-1 in left ventricle. The assay can be described thus: Angiotensin II model, markers of cardiac hypertrophy. Format: in vivo, ovariectomized C57/BJ6 and ERβKO mice. How it is done: as §1, §2
RT-PCR was accomplished using the following primers. GAPDH expression served as control gene for all studies. MCIP1, 5′-[…] and […]; GAPDH, 5′-[…] and […]. • For relative protein detection, immunoblots were carried out on protein extracted from the left ventricles of mice from all conditions, following separation by SDS-PAGE and transfer to nitrocellulose. Cardiac myosin heavy chain (MHC) and MCIP antibodies (ABCAM, Cambridge, Mass. and Santa Cruz Biotechnology Inc., Santa Cruz, Calif.), and brain natriuretic peptide (BNP) antibodies (Penninsula Labs, Mountain View, Calif.) were used.

Another assay concerns C-26 colon cancer cells. The assay can be described thus: 3H thymidine incorporation, C-26 cells. Conditions: 3 days treatment. It is filed as cell-based. How it is done:
as §3

Assay [6] has as its system high fat diet induced obesity in already obese mice. The assay can be described thus: High fat diet induced obesity, treatment study (study 3). It is filed as in vivo, C57BL6 male mice. How it is done:
For the treatment obesity study (where the animals were fed with high fat diet for six weeks prior to beginning drug treatment for 18 weeks), MRI scans were performed at weeks 0, 6, 12, 18 and 24.
As the first two studies were designed to prevent obesity (i.e. animals were fed with a high fat diet and treated simultaneously), a subsequent study was conducted to evaluate the ability of 12u to affect body composition in mice that were already fed with the high fat diet and were obese. Mice were divided into three groups with one group fed with normal diet (control) and the other two groups fed with the high fat diet for 6 weeks. […] All the animals were maintained in their respective diets during the entire course of the study.

Assay [7] has as its target ER-β ligand binding domain (LBD) (Homo sapiens (Human), UniProt Q92731). The assay can be described thus: Ligand binding assay of 14m and 12u, ER-β (Example 22A).
Assay [8] has as its system genes implicated in lipogenesis, lypolysis, anti-oxidant and other related pathways. The assay can be described thus: TaqMan PCR gene expression arrays on tissues of high fat diet mice. It is filed as in vivo, C57BL6 male mice. Background: In qPCR the cycle at which signal appears reflects the starting amount.
Source text: RNA extracted from WAT, BAT, liver and muscle were reverse transcribed using cDNA synthesis kit (Applied biosystems, Foster city, CA).
RNA from liver, muscle, WAT and BAT were applied to these arrays.
Setting [9] is: Brown Adipose Tissue, vs high fat diet vehicle, >2-fold, p<0.01.
The mark [10] stands for this setting: Liver, vs high fat diet vehicle, >2-fold, p<0.01.
[11] abbreviates: White Adipose Tissue, vs high fat diet vehicle, >2-fold, p<0.01.

ER-β ligand binding domain (LBD), sequence (Q92731 264-498, species assumed): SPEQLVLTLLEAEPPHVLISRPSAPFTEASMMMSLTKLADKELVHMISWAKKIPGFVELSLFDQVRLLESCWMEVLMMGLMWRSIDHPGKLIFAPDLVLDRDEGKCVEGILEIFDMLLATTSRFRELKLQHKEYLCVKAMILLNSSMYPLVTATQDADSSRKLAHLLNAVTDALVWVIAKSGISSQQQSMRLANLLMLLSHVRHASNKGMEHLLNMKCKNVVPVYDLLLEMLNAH

With `O=c1c2c(O)cc(O)cc2c(Br)cn1-c1ccc(O)cc1` [12u, 4-bromo-6,8-dihydroxy-2-(4-hydroxyphenyl)isoquinolin-1(2H)-one], the “Ang II induced increase in heart size and total heart weight” value in assay [1] is “prevented the increased size”. The “Ang II induced left ventricular hypertrophy (LVW/BW)” value in [1] (wildtype but not ERβKO mice) was “largely prevented; also recorded: prevented Ang II induced cardiac hypertrophy and increased heart size”. In addition, the “Growth of LNCaP prostate cancer cells” value in [2] was “significantly inhibited”. Further, the Ventricular hydroxyproline content result in [3] (WT mice, not ERβKO) is reported as “significantly inhibited the hydroxyproline content”. The “Ang II induced cardiac fibrosis (interstitial collagen)” value in [3] (only in WT mice) is “significantly inhibited fibrosis; also recorded: prevented”. For the same molecule, the “Adhesion of 3H labeled THP-1 cells to bEND-3 cells” value in assay [4] is reported as “significantly inhibited”. Besides, the “Ang II induced elevations in phospho-ERK (p-ERK)” value in assay [5] (wildtype animals) was “partially prevented”. In assay [5] (wildtype mice, irrespective of Ang II treatment), the MCIP-1 levels result is “robustly elevated MCIP-1 levels”. Also, in the assay on C-26 colon cancer cells, the “Growth of C-26 colon cancer cells” value is on record as “significantly inhibited”. Besides, in assay [6] (by week 16), the “Body weight versus normal diet control mice” value was “not significantly different from normal diet control mice”. In addition, in assay [6] (obese mice, 30 mg/kg/day s.c.), the “Body fat increase (MRI)” value is “reduced”. Further, in assay [6] (obese mice, 30 mg/kg/day s.c. from week 6), the “Body weight gain after start of treatment” value is reported as “prevented further gains in body weight”.

`N#Cc1cn(-c2ccc(O)cc2)c(=O)c2c(O)cc(O)cc12` [14m, 6,8-dihydroxy-2-(4-hydroxyphenyl)-1-oxo-1,2-dihydroisoquinoline-4-carbonitrile] showed a Ki in assay [7] of 5.35 nM. In addition, the “High fat diet increase in expression of lipogenesis genes (LPL, FASN, SREBP-1, PLTP, Dhcr24)” value in assay [8] (BAT and WAT) was “reversed”. In assay [8] (setting [9]), the “Ddit3 gene expression Increase/Decrease” value is listed as “Decrease”, the “Dhcr24 gene expression Increase/Decrease” value is given as “Decreased”, the “ER-β gene expression Increase/Decrease” value is “Increased” and the “GPx-3 gene expression Increase/Decrease” value is “Increase”. Further, in assay [8] (setting [9]), the “LPL gene expression Increase/Decrease” value is given as “Decrease”, the “PLTP gene expression Increase/Decrease” value is “Decrease” and the “UCP-1 gene expression Increase/Decrease” value is “increase in UCP-1 gene expression; also recorded: Increased”. In addition, in [8] (setting [10]), the “CIDEA gene expression Increase/Decrease” value is “Decrease” and the “GPx-3 gene expression Increase/Decrease” value is “Increase”. For the same molecule, in assay [8] (setting [11]), the “Ddit3 gene expression Increase/Decrease” value is listed as “Decrease”, the “FASN gene expression Increase/Decrease” value was “Decrease”, the “LPL gene expression Increase/Decrease” value is reported as “Decrease” and the “SREBP1 gene expression Increase/Decrease” value is given as “Decrease”.

The Ki is a dissociation constant, usually derived from enzyme kinetics or from competition with a known ligand.
